From patent publication US11147812B2, “Tyrosine analogues derivatives as Rho-kinase inhibitors” (Chiesi Farmaceutici S.p.A., priority 2017, dated 2021)

Legend:
Rho kinase 1 (ROCK1) = Rho kinase 1 (ROCK1) (Homo sapiens, UniProt Q13464); experiment: In vitro Rho kinase inhibitory activity assay (ADP-Glo), ROCK1; format: biochemical; settings: 10 μM ATP, 25° C., Ki by Cheng-Prusoff
Method: (§1) The effectiveness of compounds of the present invention to inhibit Rho kinase activity can be determined in a 10 μl assay containing 40 mM Tris pH7.5, 20 mM MgCl2 0.1 mg/ml BSA, 50 μM DTT and 2.5 μM peptide substrate (Myelin Basic Protein) using an ADP-Glo kit (Promega). Compounds were dissolved in DMSO such that the final concentration of DMSO was 1% in the assay. All reactions/incubations are performed at 25° C. Compound (2 ul) and either Rho kinase 1 or 2 (4 μl) were mixed and incubated for 30 mins. Reactions were initiated by addition of ATP (4 μl) such that the final concentration of ATP in the assay was 10 μM. After a 1 hour incubation 10 μl of ADP-Glo Reagent was added and after a further 45 minute incubation 20 ul of Kinase Detection Buffer was added and the mixture incubated for a further 30 minutes. The luminescent signal was measured on a luminometer. […] Compounds were tested in dose-response format and the inhibition of kinase activity was calculated at each concentration of compound. To determine the IC50 (concentration of compound required to inhibit 50% of the enzyme activity) data were fit to a plot of % inhibition vs Log10 compound concentration using a sigmoidal fit with a variable slope and fixing the maximum to 100% and the minimum to 0%. To determine the Ki values the Cheng-Prusoff equation was utilized (Ki=IC50/(1+[S]/Km)

Rho kinase 2 (ROCK2) = Rho kinase 2 (ROCK2) (Homo sapiens, UniProt O75116); experiment: In vitro Rho kinase inhibitory activity assay (ADP-Glo), ROCK2; format: biochemical; settings: 10 μM ATP, 25° C., Ki by Cheng-Prusoff
Method: as §1

Rho kinase 1 (ROCK1), sequence (Q13464 whole entry): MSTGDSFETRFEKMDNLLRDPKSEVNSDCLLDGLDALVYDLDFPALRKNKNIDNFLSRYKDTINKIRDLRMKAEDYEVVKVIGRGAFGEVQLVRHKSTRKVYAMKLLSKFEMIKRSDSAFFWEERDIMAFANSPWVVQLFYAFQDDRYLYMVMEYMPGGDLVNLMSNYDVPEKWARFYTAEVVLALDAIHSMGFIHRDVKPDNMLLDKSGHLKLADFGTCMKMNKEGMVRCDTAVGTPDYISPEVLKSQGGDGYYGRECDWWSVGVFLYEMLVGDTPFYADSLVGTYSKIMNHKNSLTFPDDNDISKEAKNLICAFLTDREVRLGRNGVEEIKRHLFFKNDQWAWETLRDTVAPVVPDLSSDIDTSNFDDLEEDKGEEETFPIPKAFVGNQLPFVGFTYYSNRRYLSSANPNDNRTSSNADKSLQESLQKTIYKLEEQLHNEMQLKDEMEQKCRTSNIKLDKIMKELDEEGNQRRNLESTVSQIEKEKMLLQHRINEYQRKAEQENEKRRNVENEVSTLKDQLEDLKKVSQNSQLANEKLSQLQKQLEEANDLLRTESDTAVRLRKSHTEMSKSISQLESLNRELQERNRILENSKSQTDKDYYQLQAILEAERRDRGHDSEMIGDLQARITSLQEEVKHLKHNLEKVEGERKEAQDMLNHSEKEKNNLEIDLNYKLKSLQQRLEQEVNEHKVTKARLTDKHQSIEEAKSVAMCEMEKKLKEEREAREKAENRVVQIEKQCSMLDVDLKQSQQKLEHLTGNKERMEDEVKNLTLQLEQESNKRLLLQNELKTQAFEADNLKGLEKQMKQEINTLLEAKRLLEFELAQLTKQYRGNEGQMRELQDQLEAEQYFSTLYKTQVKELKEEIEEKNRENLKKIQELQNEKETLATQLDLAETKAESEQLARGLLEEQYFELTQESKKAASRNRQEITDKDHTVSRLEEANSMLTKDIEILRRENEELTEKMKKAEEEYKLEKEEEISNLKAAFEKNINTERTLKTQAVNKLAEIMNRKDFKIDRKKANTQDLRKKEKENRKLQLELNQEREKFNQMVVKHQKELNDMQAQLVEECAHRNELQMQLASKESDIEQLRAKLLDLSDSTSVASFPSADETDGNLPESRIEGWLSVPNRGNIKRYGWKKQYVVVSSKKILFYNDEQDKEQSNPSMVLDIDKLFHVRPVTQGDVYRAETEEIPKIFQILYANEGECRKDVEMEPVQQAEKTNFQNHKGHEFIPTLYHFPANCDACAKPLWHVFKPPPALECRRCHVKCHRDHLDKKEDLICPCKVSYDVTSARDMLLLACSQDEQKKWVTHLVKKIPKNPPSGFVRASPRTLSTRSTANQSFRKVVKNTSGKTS
Rho kinase 2 (ROCK2), sequence (O75116 whole entry): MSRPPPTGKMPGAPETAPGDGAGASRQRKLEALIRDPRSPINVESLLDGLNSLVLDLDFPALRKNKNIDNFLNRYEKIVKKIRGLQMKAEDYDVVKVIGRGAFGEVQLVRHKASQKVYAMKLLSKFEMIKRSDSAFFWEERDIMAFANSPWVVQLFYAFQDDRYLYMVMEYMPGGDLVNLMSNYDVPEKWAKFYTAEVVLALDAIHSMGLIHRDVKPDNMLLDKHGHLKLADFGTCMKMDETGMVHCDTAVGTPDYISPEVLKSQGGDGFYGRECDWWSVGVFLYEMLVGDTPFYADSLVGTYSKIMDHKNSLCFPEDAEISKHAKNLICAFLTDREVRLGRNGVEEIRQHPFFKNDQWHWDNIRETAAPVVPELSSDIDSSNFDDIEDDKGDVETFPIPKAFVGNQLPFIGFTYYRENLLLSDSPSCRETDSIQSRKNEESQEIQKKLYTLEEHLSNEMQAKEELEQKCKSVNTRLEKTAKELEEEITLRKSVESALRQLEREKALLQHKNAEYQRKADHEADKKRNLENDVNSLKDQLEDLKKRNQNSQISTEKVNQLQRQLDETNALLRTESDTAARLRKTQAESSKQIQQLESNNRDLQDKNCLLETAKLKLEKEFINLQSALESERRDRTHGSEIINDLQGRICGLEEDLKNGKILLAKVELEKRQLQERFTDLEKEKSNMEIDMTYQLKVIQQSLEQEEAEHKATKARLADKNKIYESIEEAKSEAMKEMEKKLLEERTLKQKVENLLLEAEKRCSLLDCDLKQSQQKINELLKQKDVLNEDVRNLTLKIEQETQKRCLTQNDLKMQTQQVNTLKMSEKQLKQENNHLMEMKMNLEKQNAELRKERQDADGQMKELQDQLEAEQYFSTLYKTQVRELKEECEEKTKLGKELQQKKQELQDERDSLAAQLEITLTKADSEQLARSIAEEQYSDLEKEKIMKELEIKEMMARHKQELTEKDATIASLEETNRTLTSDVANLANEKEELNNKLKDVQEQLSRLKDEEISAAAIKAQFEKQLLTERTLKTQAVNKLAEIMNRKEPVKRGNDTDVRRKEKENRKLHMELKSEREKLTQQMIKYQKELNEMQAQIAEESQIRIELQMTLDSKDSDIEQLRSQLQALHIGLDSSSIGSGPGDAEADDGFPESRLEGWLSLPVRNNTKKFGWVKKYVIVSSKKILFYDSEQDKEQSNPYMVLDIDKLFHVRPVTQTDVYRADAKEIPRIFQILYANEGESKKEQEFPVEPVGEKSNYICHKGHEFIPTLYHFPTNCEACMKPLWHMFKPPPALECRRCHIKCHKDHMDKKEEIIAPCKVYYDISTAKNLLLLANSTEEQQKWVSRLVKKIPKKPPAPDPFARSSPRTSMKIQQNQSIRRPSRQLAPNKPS

Compound	Ki (Rho kinase 1 (ROCK1)) [nM]	Ki (Rho kinase 2 (ROCK2)) [nM]
Cc1c[nH]c2nccc(Oc3ccc(CC(CN)C(=O)N4CCN(C5CC5)CC4)cc3)c12 (stereo not shown) [Example 2, 3-amino-1-(4-cyclopropylpiperazin-1-yl)-2-(4-((3-methyl-1H-pyrrolo[2,3-b]pyridin-4-yl)oxy)benzyl)propan-1-one]	< 3	< 3
Cc1c[nH]c2nccc(Oc3ccc(C(CN)CC(=O)N4CCN(C5CC5)CC4)cc3)c12 (stereo not shown) [Example 16, 4-amino-1-(4-cyclopropylpiperazin-1-yl)-3-(4-((3-methyl-1H-pyrrolo[2,3-b]pyridin-4-yl)oxy)phenyl)butan-1-one]	3 to 30	3 to 30
Cc1c[nH]c2nccc(Oc3ccc(CC(CN)C(=O)N4C[C@@H]5C[C@H]4CN5C)cc3F)c12 (single isomer, unassigned) [Example 4B]	< 3	< 3
Cc1c[nH]c2nccc(Oc3ccc([C@H]4CNC[C@@H]4C(=O)NCc4ccccc4)cc3)c12 (single isomer, unassigned) [Example 17A]	< 3	< 3
CN1CCC(NC(=O)C(N)c2ccc(Oc3ccnc4[nH]ccc34)cc2)CC1 (stereo not shown) [Example 14, 2-(4-((1H-pyrrolo[2,3-b]pyridin-4-yl)oxy)phenyl)-2-amino-N-(1-methylpiperidin-4-yl)acetamide]	> 30	> 30
Cc1c[nH]c2nccc(Oc3ccc(CC(CN)C(=O)NC4CCN(C)CC4)cc3F)c12 (stereo not shown) [Example 3, 3-amino-2-(3-fluoro-4-((3-methyl-1H-pyrrolo[2,3-b]pyridin-4-yl)oxy)benzyl)-N-(1-methylpiperidin-4-yl)propanamide]	< 3	< 3
Cc1c[nH]c2nccc(Oc3ccc(CC(CN)C(=O)N4CCN(Cc5ccccn5)CC4)cc3F)c12 (single isomer, unassigned) [Example 5A, 3-amino-2-(3-fluoro-4-((3-methyl-1H-pyrrolo[2,3-b]pyridin-4-yl)oxy)benzyl)-1-(4-(pyridin-2-ylmethyl)piperazin-1-yl)propan-1-one]	3 to 30	3 to 30
NC(C(=O)Nc1ccc(C(F)(F)F)cc1)c1ccc(Oc2ccnc3[nH]ccc23)cc1 (stereo not shown) [Example 10, 2-(4-((1H-pyrrolo[2,3-b]pyridin-4-yl)oxy)phenyl)-2-amino-N-(4-(trifluoromethyl)phenyl)acetamide]	> 30	> 30
Cc1c[nH]c2nccc(Oc3ccc(CC(CN)C(=O)N4C[C@@H]5C[C@H]4CN5C)cc3F)c12 (stereo partly drawn) [Example 4, 3-amino-2-(3-fluoro-4-((3-methyl-1H-pyrrolo[2,3-b]pyridin-4-yl)oxy)benzyl)-1-((1S,4S)-5-methyl-2,5-diazabicyclo[2.2.1]heptan-2-yl)propan-1-one]	< 3	< 3
Cc1c[nH]c2nccc(Oc3ccc(CC(CN)C(=O)N4C[C@@H]5C[C@H]4CN5C)cc3F)c12 (single isomer, unassigned) [Example 4A]	3 to 30	3 to 30
NC(C(=O)Nc1ccccc1)c1ccc(Oc2ccnc3[nH]ccc23)cc1 (stereo not shown) [Example 9, 2-(4-((1H-pyrrolo[2,3-b]pyridin-4-yl)oxy)phenyl)-2-amino-N-phenylacetamide]	> 30	> 30
NC(C(=O)NC1CCCCC1)c1ccc(Oc2ccnc3[nH]ccc23)cc1 (stereo not shown) [Example 8, 2-(4-((1H-pyrrolo[2,3-b]pyridin-4-yl)oxy)phenyl)-2-amino-N-cyclohexylacetamide]	> 30	> 30

Results, then the compound that gave them:

Ki (Rho kinase 1 (ROCK1)) [nM]	Ki (Rho kinase 2 (ROCK2)) [nM]	Compound
3 to 30	3 to 30	Cc1c[nH]c2nccc(Oc3ccc([C@@H]4CCN[C@H]4C(=O)N4CCNCC4)cc3)c12 (racemic) [Example 27, rac-((2S,3R)-3-(4-((3-methyl-1H-pyrrolo[2,3-b]pyridin-4-yl)oxy)phenyl)pyrrolidin-2-yl)(piperazin-1-yl)methanone]
3 to 30	3 to 30	Cc1c[nH]c2nccc(Oc3ccc([C@H]4CNC[C@@H]4C(=O)NCc4ccccc4)cc3)c12 (single isomer, unassigned) [Example 17B]
< 3	< 3	Cc1c[nH]c2nccc(Oc3ccc(CC(CN)C(=O)N4CCN(Cc5ccccc5)CC4)cc3)c12 (stereo not shown) [Example 30, 3-amino-1-(4-benzylpiperazin-1-yl)-2-(4-((3-methyl-1H-pyrrolo[2,3-b]pyridin-4-yl)oxy)benzyl)propan-1-one]
3 to 30	3 to 30	Cc1c[nH]c2nccc(Oc3ccc(CC(CN)C(=O)N4CCN(Cc5ccccc5)CC4)cc3F)c12 (single isomer, unassigned) [Example 29A, 3-amino-1-(4-benzylpiperazin-1-yl)-2-(3-fluoro-4-((3-methyl-1H-pyrrolo[2,3-b]pyridin-4-yl)oxy)benzyl)propan-l-one]
> 30	> 30	Cc1c[nH]c2nccc(Oc3ccc(C4CC(=O)N(CCCN(C)C)CN4)cc3)c12 (stereo not shown) [Example 38, 3-(3-(dimethylamino)propyl)-6-(4-((3-methyl-1H-pyrrolo[2,3-b]pyridin-4-yl)oxy)phenyl)tetrahydropyrimidin-4(1H)-one]
3 to 30	3 to 30	NCC(Cc1ccc(Oc2ccnc3[nH]ccc23)cc1)C(=O)NC1CCOCC1 (stereo not shown) [Example 34, 2-(4-((1H-pyrrolo[2,3-b]pyridin-4-yl)oxy)benzyl)-3-amino-N-(tetrahydro-2H-pyran-4-yl)propanamide]
3 to 30	< 3	N#Cc1c[nH]c2nccc(Oc3ccc(CC(CN)C(=O)N4CCN(Cc5ccccn5)CC4)cc3)c12 (stereo not shown) [Example 49, 4-(4-(2-(aminomethyl)-3-oxo-3-(4-(pyridin-2-ylmethyl)piperazin-1-yl)propyl)phenoxy)-1H-pyrrolo[2,3-b]pyridine-3-carbonitrile]
3 to 30	< 3	Cc1c[nH]c2nccc(Oc3ccc([C@@H]4CN(C)C[C@H]4C(=O)NCc4ccccc4)cc3)c12 (racemic) [Example 50, rac-(3R,4S)-N-benzyl-1-methyl-4-(4-((3-methyl-1H-pyrrolo[2,3-b]pyridin-4-yl)oxy)phenyl)pyrrolidine-3-carboxamide]
< 3	< 3	Cc1c[nH]c2nccc(Oc3ccc(CC(CN(C)C)C(=O)N4CCN(Cc5ccccc5)CC4)cc3)c12 (stereo not shown) [Example 37, 1-(4-benzylpiperazin-1-yl)-3-(dimethylamino)-2-(4-((3-methyl-1H-pyrrolo[2,3-b]pyridin-4-yl)oxy)benzyl)propan-1-one]
< 3	< 3	CNCC(Cc1ccc(Oc2ccnc3[nH]cc(C)c23)cc1)C(=O)N1CCN(Cc2ccccc2)CC1 (stereo not shown) [Example 36, 1-(4-benzylpiperazin-1-yl)-2-(4-((3-methyl-1H-pyrrolo[2,3-b]pyridin-4-yl)oxy)benzyl)-3-(methylamino)propan-1-one]
> 30	3 to 30	COCCCN1CNCC(Cc2ccc(Oc3ccnc4[nH]cc(C)c34)c(F)c2)C1=O (stereo not shown) [Example 42, 5-(3-fluoro-4-((3-methyl-1H-pyrrolo[2,3-b]pyridin-4-yl)oxy)benzyl)-3-(3-methoxypropyl)tetrahydropyrimidin-4(1H)-one]
< 3	< 3	Cc1c[nH]c2nccc(Oc3ccc([C@H]4CCN[C@@H]4C(=O)NCc4ccccc4)cc3)c12 (racemic) [Example 19, rac-(2S,3R)-N-benzyl-3-(4-((3-methyl-1H-pyrrolo[2,3-b]pyridin-4-yl)oxy)phenyl)pyrrolidine-2-carboxamide]
< 3	< 3	Cc1c[nH]c2nccc(Oc3ccc([C@H]4CCN[C@@H]4C(=O)NCCOc4ccccc4)cc3)c12 (racemic) [Example 23, rac-(2S,3R)-3-(4-((3-methyl-1H-pyrrolo[2,3-b]pyridin-4-yl)oxy)phenyl)-N-(2-phenoxyethyl)pyrrolidine-2-carboxamide]
< 3	< 3	Cc1c[nH]c2nccc(Oc3ccc([C@H]4CCN[C@@H]4C(=O)NCCc4ccccc4)cc3)c12 (racemic) [Example 22, rac-(2S,3R)-3-(4-((3-methyl-1H-pyrrolo[2,3-b]pyridin-4-yl)oxy)phenyl)-N-phenethylpyrrolidine-2-carboxamide]
> 30	> 30	Cc1c[nH]c2nccc(Oc3ccc(CC4CNCN(CCc5ccncc5)C4=O)cc3F)c12 (stereo not shown) [Example 43, 5-(3-fluoro-4-((3-methyl-1H-pyrrolo[2,3-b]pyridin-4-yl)oxy)benzyl)-3-(2-(pyridin-4-yl)ethyl)tetrahydropyrimidin-4(1H)-one]
3 to 30	3 to 30	CN1CCC(N2CNCC(Cc3ccc(Oc4ccnc5[nH]cc(C#N)c45)cc3)C2=O)CC1 (stereo not shown) [Example 47, 4-(4-((1-(1-methylpiperidin-4-yl)-6-oxohexahydropyrimidin-5-yl)methyl)phenoxy)-1H-pyrrolo[2,3-b]pyridine-3-carbonitrile]
< 3	< 3	CN(C)CCCNC(=O)C(CN)Cc1ccc(Oc2ccnc3[nH]cc(C#N)c23)cc1 (stereo not shown) [Example 44, 3-amino-2-(4-((3-cyano-1H-pyrrolo[2,3-b]pyridin-4-yl)oxy)benzyl)-N-(3-(dimethylamino)propyl)propanamide]
